Source: paper PMC9866314 (Viruses, 2022)

Legend:
[1] = in vitro; conditions: hamster
[2] = test system: FMDV serotype A (NP05); experiment: microbe, parasite or virus in culture; type: cell-based; conditions: Foot-and-mouth disease virus; for EC50: BHK-21, read-out: Antiviral Activity EC50; for EC90: BHK-21, read-out: Antiviral Activity EC90
[3] = test system: RD114 glycoprotein (RD114pp) of endogenous feline retrovirus; conditions: read-out: IC50 against RD114pp; cited from earlier work

Compound | CC50 [1] [µM] | EC50 [2] [µM] | EC90 [2] [µM] | IC50 [3] [µM]
CCOC(=O)/C=C/[C@H](C[C@@H]1CCNC1=O)NC(=O)[C@@H](CC(=O)[C@@H](NC(=O)c1cc(C)on1)C(C)C)Cc1ccc(F)cc1 [Rupintrivir, reference compound] | > 100 | 2.02 ± 0.3 | 12.1 ± 1.6 | 
CC1=CC(C)(C)Nc2ccc(Cc3ccc4c(c3)C(C)=CC(C)(C)N4)cc21 [NSC217697, 6,6′-methylene bis(2,2,4-trimethyl-1,2-dihydroquinoline)] | > 100 | 0.78 ± 0.1 | 9.52 ± 0.18 | 
NC(=O)c1ncn([C@@H]2O[C@H](CO)[C@@H](O)[C@H]2O)n1 [Ribavirin, 1-β-d-ribofuranosyl-1,2,4-triazole-3-carboxamide, reference compound] | > 100 | 42.89 ± 0.42 | 393.6 ± 2.56 | 
CO[C@@H]1C[C@@H](C[C@H]2CC[C@H](C)[C@H]([C@@H](C)C(=O)O)O2)O[C@]2(O[C@](C)([C@H]3CC[C@@](C)([C@@H]4O[C@@H]([C@H]5O[C@@](O)(CO)[C@H](C)C[C@@H]5C)C[C@@H]4C)O3)C[C@H]2C)[C@@H]1C [NSC292567, Pandavir/Nigericin] | 49.9 ± 1.7 | 0.42 ± 0.08 | 3.85 ± 0.34 | 
O=C1CCCc2cc3c(cc21)CC1(C3)Cc2cc3c(cc2C1)C(=O)CCC3 [NSC670283, 2,2′-spirobi [3,6,7,8-tetrahydro-1H-cyclopenta[g]naphthalene]-5,5′-dione] | > 100 | 3.38 ± 1.02 | 30.45 ± 0.25 | 3
